Patent US20200239561A1, “NODAL REGULATION OF CANCER DRUG RESISTANCE GENE” (TaiRx Inc., priority 2019, published 2020)

Columns and labels:
Nodal protein [1] = test: Western blot of Nodal protein (ProNodal) in acute lymphoblastic leukemia cell line REH; format: cell-based; details: REH cells, 72 hr treatment
From the text: Treatment of the cells for 72 hr with CVM-1125 reduced Nodal protein expression by 38%, while under the same treatment regimen the drug Ara-c reduced Nodal protein expression by 51%, Ws65 reduced Nodal protein by 90%, a combination of CVM-1125 plus WS65 reduced Nodal protein by 75% and Ara-c plus WS65 reduced Nodal protein by 69%.

Nodal protein [2] = test: Western blot of Nodal protein expression in SK-MEL28 melanoma cells; format: cell-based, human; details: 72 hours treatment
Procedure: (§1) Human metastatic melanoma cell lines C8161, SK-MEL28 and A375SM-L1 and melanocytes were treated with anti-Nodal or anti-ABCA1 antibodies followed by secondary fluorescent antibodies. (A) Cells were viewed using a Zeiss Axioskop 2 microscope and photomicrographs taken comparing immunofluorescence staining of the melanoma cells versus melanocytes (negative control) and cells treated with secondary antibody only (antibody control; magnification 63×). All three aggressive melanoma cell lines express both Nodal and ABCA1 proteins. (B) Furthermore, whole cell protein lysates were prepared from the C8161, SK-MEL28 and A375SM-L1 cells and Western blot analysis verified the expression of both Nodal and ABCA1 proteins at their appropriate molecular weight equivalence. β-Actin protein was used to determine the equal loading of total protein per sample per lane on the Western blot.
(§2) (A) After 72 hr treatment with WS65, an anti-Nodal inhibitory antibody, there is a 94% reduction in Nodal protein expression and 55% reduction in the ABCA1 protein expression. […] Similar treatment with WS65 results in a 55% decrease in Nodal protein expression and 38% decrease in ABCA1 protein expression while treatment with both CVM-1125 and WS65 for 72 hr appears to synergistically reduce the expression of Nodal protein by 81% and ABCA1 protein by 99%.

ABCA1 protein = test: Western blot of ABCA1 protein expression in SK-MEL28 melanoma cells; format: cell-based, human; details: 72 hours treatment
Procedure: as §1, §2

Nodal = Nodal in experimental TNBC models after doxorubicin; details: three experimental TNBC models expressing high levels of Nodal

SMILES | reduced Nodal protein expression (Nodal protein [1]) | decrease in Nodal protein expression (Nodal protein [2]) | decrease in ABCA1 protein expression (ABCA1 protein) | effect on the Nodal target (Nodal)
Nc1ccn([C@@H]2O[C@H](CO)[C@@H](O)[C@@H]2O)c(=O)n1 [Ara-c, reference compound] | 51% | – | – | –
COc1ccc2[nH]c(-c3cccc(F)c3)cc(=O)c2c1O [CVM-1125] | 38% | 19% | 14% | –
COc1cccc2c1C(=O)c1c(O)c3c(c(O)c1C2=O)C[C@@](O)(C(=O)CO)C[C@@H]3O[C@H]1C[C@H](N)[C@H](O)[C@H](C)O1 [doxorubicin] | – | – | – | did not effectively diminish
